Source: PMC8126888 (RSC Medicinal Chemistry, 2020)
Where two headings read alike, the source gives them in different places.

Columns and labels:
[1] = tested on: Leishmania infantum MHOM/MA(BE)/67/ITMAP263 intracellular amastigotes; settings: for IC50: read-out: L. infantum MHOM/MA(BE)/67/ITMAP263 intracellular amastigotes IC50
[2] = tested on: L. donovani MHOM/ET/67/L82 intracellular amastigotes; settings: read-out: L. donovani MHOM/ET/67/L82 intracellular amastigotes IC50
[3] = tested on: primary peritoneal mouse macrophages (PMM); settings: for IC50: read-out: PMM IC50; for SI (vs PMM): PMM IC50 / L. infantum IC50
MRC-5SV2 cells = assay: Cytotoxicity assay on MRC-5SV2 cells (resazurin)
[4] = tested on: primary peritoneal mouse macrophages (PMM); assay: cells; settings: Macrophage, read-out: PMM IC50
in vitro [5] = settings: human, microsomes, pH 7.4, HLM CLint, human liver microsomes
in vitro [6] = settings: mouse, microsomes, pH 7.4, MLM CLint, mouse liver microsomes
physchem = settings: HPLC, Ascentis Express RP Amide column, pH 7.4, eLogD, experimental
in vitro [7] = settings: human
in vitro [8] = settings: PAMPA
[9] = tested on: Leishmania infantum MHOM/MA(BE)/67/ITMAP263 intracellular amastigotes; assay: microbe, parasite or virus in culture; settings: Macrophage, in Mus musculus
[10] = tested on: Trypanosoma cruzi, Tulahuen CL2, beta-galactosidase strain; assay: microbe, parasite or virus in culture; settings: MRC5, read-out: T. cruzi Tulahuen C4 (LacZ) IC50
[11] = from L. infantum intracellular amastigote IC50
[12] = read-out: L. Inf. pIC50, from L. infantum intracellular amastigote IC50 (converted)
[13] = read-out: L. infantum MHOM/MA(BE)/67/ITMAP263 intracellular amastigotes IC50, intracellular amastigotes

SMILES | IC50 [1] | IC50 [2] | IC50 [3] | CC50 (MRC-5SV2 cells) | L. Inf. pIC50 [1] | L. Inf. pIC50 [1, 11] | SI (vs PMM) [3] | IC50 [4] | microsomal CLint at 0.5 μM (in vitro [5]) | microsomal CLint at 0.5 μM (in vitro [6]) | chromatographic logD (physchem) | CC50 at 3 days (in vitro [7]) | Papp (in vitro [8]) | IC50 [9, 12] | IC50 [9, 13] | IC50 [10]
COc1ccc(S(=O)(=O)N(C)C)cc1NC(=O)Cn1c(=O)cnc2ccccc21 [Compound Z19025005] | > 32 µM | > 32 µM | > 32 µM | > 32 µM |  |  |  |  |  |  |  |  |  |  |  | 
CCN(CC)S(=O)(=O)c1cc(NC(=O)c2[nH]c(C)c(C(=O)OC)c2C)ccc1C [Compound Z26467494] | 16.1 µM | 12 µM | > 32 µM | 10.9 µM | 4.79 |  |  |  |  |  |  |  |  |  |  | 
CCOc1ccc(NC(=O)c2[nH]c(C)c(C(=O)OC)c2C)cc1S(=O)(=O)N1CCCC1 [Compound Z29178369] | > 32 µM | > 32 µM | > 32 µM | > 32 µM |  |  |  |  |  |  |  |  |  |  |  | 
COc1ccc(S(=O)(=O)N(C)C)cc1NC(=O)CN1C(=O)COc2ccccc21 [Compound Z29560624] | > 32 µM | > 32 µM | > 32 µM | > 32 µM |  |  |  |  |  |  |  |  |  |  |  | 
CCCCOc1cc(C)c(Cl)cc1S(=O)(=O)NCc1cccnc1 [Compound Z969575790] |  | 25.4 µM |  |  |  | 4.78 | 2 |  |  |  |  |  |  |  |  | 
CCCCCOc1cc(C)c(Cl)cc1S(=O)(=O)NCc1ccco1 [Compound Z1172171148] |  | 4.76 µM |  |  |  | 5.97 | 30 |  |  |  |  |  |  |  |  | 
CCCOc1cc(C)c(C)cc1S(=O)(=O)NC1CCCC1 [Compound Z1197866122] |  | > 32 µM |  |  |  |  | 1 |  |  |  |  |  |  |  |  | 
CCCCOc1cc(C)c(Cl)cc1S(=O)(=O)NCc1cccs1 [Compound Z1198037505] |  | 5.38 µM |  |  |  | 6.1 | 41 |  |  |  |  |  |  |  |  | 
COc1ccc(OC)c(S(=O)(=O)N(CCn2nc(C)cc2C)Cc2ccccc2)c1 [DNDI0003367308] |  |  |  |  |  |  |  | > 64 µM | 2270 µL/min/mg | 3100 µL/min/mg | 4.1 | 51 µM | 10.9 ×10⁻⁶ cm/s | 6.17 µM | 6.23 µM | 8.09 µM
COc1ccc(OC)c(S(=O)(=O)N(Cc2ccc(F)cc2)Cc2ccccn2)c1 [DNDI0003368394] |  |  |  |  |  |  |  | > 64 µM | 151 µL/min/mg | 344 µL/min/mg | 2.7 | > 64 µM | 60.1 ×10⁻⁶ cm/s | 0.977 µM | 0.97 µM | 20.9 µM
O=S(=O)(NC(CO)Cc1ccccc1)c1cc(F)ccc1F (stereo not drawn) [DNDI0003368459] |  |  |  |  |  |  |  | > 64 µM | 42 µL/min/mg | 274 µL/min/mg | 2.8 | > 64 µM | 10.6 ×10⁻⁶ cm/s | > 64 µM | > 64 µM | > 64 µM
COC(=O)[C@H](CO)NS(=O)(=O)c1cc(Cl)ccc1OC [DNDI0003369004] |  |  |  |  |  |  |  | > 64 µM | 112 µL/min/mg | 230 µL/min/mg | 1.8 | > 64 µM | 9.07 ×10⁻⁶ cm/s | > 64 µM | > 64 µM | > 64 µM
CCOCCOc1ncccc1S(=O)(=O)NCc1ccc(F)cc1 [DNDI0003369119] |  |  |  |  |  |  |  | > 64 µM | 2210 µL/min/mg | 1530 µL/min/mg | 3.2 | > 64 µM | 23.8 ×10⁻⁶ cm/s | 33.1 µM | 33.3 µM | > 64 µM
O=S(=O)(NCc1ccc(F)cc1)c1cccnc1OCc1ccccc1 [DNDI0003369120] |  |  |  |  |  |  |  | 32 µM | 2740 µL/min/mg | 2750 µL/min/mg | 4 | 20.2 µM | 12.8 ×10⁻⁶ cm/s | 8.51 µM | 8.42 µM | 12.7 µM
O=S(=O)(NCc1ccc(F)cc1)c1cccnc1NCCN1CCOCC1 [DNDI0003369121] |  |  |  |  |  |  |  | > 64 µM | 1850 µL/min/mg | 1950 µL/min/mg | 3.1 | > 64 µM | 1.85 ×10⁻⁶ cm/s | > 64 µM | > 64 µM | > 64 µM
O=S(=O)(c1cc(F)ccc1F)N(Cc1ccccc1)C(CO)CO [DNDI0003369448] |  |  |  |  |  |  |  | > 64 µM | < 23 µL/min/mg | 97 µL/min/mg | 2.9 | > 64 µM | 11.2 ×10⁻⁶ cm/s | 57.5 µM | 57 µM | 31.6 µM
O=S(=O)(NC(CO)Cc1ccccc1)c1ccccc1Br (stereo not drawn) [DNDI0003369449] |  |  |  |  |  |  |  | > 64 µM | 244 µL/min/mg | 1370 µL/min/mg | 3 | > 64 µM | 17.4 ×10⁻⁶ cm/s | > 64 µM | > 64 µM | 33.4 µM
O=S(=O)(c1ccccc1Br)N(Cc1ccccc1)C(CO)Cc1ccccc1 (stereo not drawn) [DNDI0003369450] |  |  |  |  |  |  |  | > 64 µM | 1560 µL/min/mg | 2180 µL/min/mg | 4.6 | 21.3 µM | 2.82 ×10⁻⁶ cm/s | > 64 µM | > 64 µM | 5.54 µM
COc1ccc(C#N)cc1S(=O)(=O)N(Cc1ccc(F)cc1)Cc1ccccn1 [DNDI0003370083] |  |  |  |  |  |  |  | > 64 µM | 694 µL/min/mg | 1840 µL/min/mg | 3.6 | > 64 µM | 11.9 ×10⁻⁶ cm/s | 3.16 µM | 3.19 µM | 28.9 µM
COc1ncccc1S(=O)(=O)N(Cc1ccc(F)cc1)Cc1ccccn1 [DNDI0003370084] |  |  |  |  |  |  |  | > 64 µM | 696 µL/min/mg | 4620 µL/min/mg | 3.5 | > 64 µM | 27.4 ×10⁻⁶ cm/s | 7.41 µM | 7.39 µM | 33.6 µM
COc1ccc(Cl)cc1S(=O)(=O)N(CC(=O)c1ccc(F)cc1)Cc1ccccc1 [DNDI0003371155] |  |  |  |  |  |  |  | 45.2 µM |  | 1900 µL/min/mg | 4.8 | > 64 µM | 0.24 ×10⁻⁶ cm/s | 41.7 µM | 41.8 µM | > 64 µM
O=C(CN(Cc1ccccc1)S(=O)(=O)c1cc(F)ccc1F)c1ccc(F)cc1 [DNDI0003371157] |  |  |  |  |  |  |  | > 64 µM | 756 µL/min/mg | 1380 µL/min/mg | 4.6 | > 64 µM | 0.83 ×10⁻⁶ cm/s | > 64 µM | > 64 µM | > 64 µM
CN(C)CCOc1ccc(F)cc1S(=O)(=O)N(Cc1ccc(F)cc1)Cc1ccc(F)cc1 [DNDI0003371161] |  |  |  |  |  |  |  | 8 µM | 214 µL/min/mg | 845 µL/min/mg | 4.9 | 7.62 µM | 0.06 ×10⁻⁶ cm/s | 2.19 µM | 2.19 µM | 2.17 µM
